Assay: In-vitro drug release of DOX in Tris-HCl buffer pH 5 and PBS pH 7.4
Format: physicochemical
Conditions: free DOX solution control, over 4 hrs
Protocol: FIGS. 7A-B show according to an exemplary embodiment of the invention in-vitro release of free DOX, and DOX-NCs in Tris-HCl buffer pH 5 (FIG. 7A) and PBS pH 7.4 (FIG. 7B).
Since the release behavior of DOX-NCs at the desired site is of a great importance for formulating an ideal cancer-targeted drug delivery system, in-vitro release studies were performed at two different pH values were tested: pH 7.4, which mimics the pH of the blood stream and pH 5, which mimics the pH of the endosomes within cancer cells. In-vitro results […] that DOX-AgNCs, DOX-Ag/PVA NCs, DOX-Ag/PEG NCs and DOX-Ag/PVP NCs released 96.6%, 97.4%, 98% and 96.4% of DOX at pH 5. While at pH 7.4, the release percentages of DOX were 73.4%, 54.3%, 59.8% and 68.5% over the course of 6 hrs. […] In-vitro release is shown of free DOX, and DOX-NCs in Tris-HCl buffer pH 5 (FIG. 7A) and PBS pH 7.4 (FIG. 7B).

release percentage of DOX (pH 5): 97.4% | release percentage of DOX (pH 7.4): 67.7%
Compound: COc1cccc2c1C(=O)c1c(O)c3c(c(O)c1C2=O)C[C@@](O)(C(=O)CO)C[C@@H]3O[C@H]1C[C@H](N)[C@H](O)[C@H](C)O1 [free DOX, Doxorubicin]
